Data as given in patent US5814638A, “Ophthalmic formulation for treating myopia comprising dopamine agonist and cyclodextrin” (LG Chemical Ltd., priority 1996, dated 1998).

Experiments:
[1] = in vivo; cited from earlier work
[2] = mucoadhesive polymer, e.g., polycarbophil; cited from earlier work
[3] = Solubility of dopamine agonists in 10 mM citrate buffer (pH 5) at 25° C. with or without HPCD; type: physicochemical
Procedure: (§1) The stability and solubility of dopamine agonists, i.e., bromocriptine(BCT), apomorphine(APO), pergolide(PER), and lisuride(LIS) were tested as follows.
(§2) For the stability test, solutions each containing 100 μg/ml of the dopamine agonist in 10 mM citrate buffer(pH 5) were incubated at 25° C. for 30 days with or without added 2-hydroxypropyl-β-cyclodextrin(HPCD, average molar substitution=0.8, average molecular weight=1500; 20 wt % based on the solution).
(§3) The amounts of the dopamine agonists in sample solutions of the stability and solubility tests were determined by HPLC method with fluorescence detector.
(§4) Each data point in FIGS. 1A and 1B represents the mean of two determinations and each value in FIG. 2 is the mean±SD(standard deviation) of three determinations. […] The addition of HPCD also bring about marked increases in the solubilities of the dopamine agonists; by a factor of 19 for bromocriptine, and two for apomorphine, pergolide, and lisuride.

[4] = Stability of dopamine agonists in 10 mM citrate buffer (pH 5) at 25° C. with or without HPCD; type: physicochemical; settings: 100 μg/ml, 10 mM citrate buffer pH 5, 25° C., 30 days, with vs without 20 wt % HPCD
Procedure: as §1, §2, §3, §4

[5] = cited from earlier work; for Stability with sodium acetate: Tris buffer pH 7.4, sodium acetate added; for Stability in Tris buffer: pH 7.4
[6] = system: eye of a young maturing animal; settings: ocular administration; cited from earlier work
[7] = in vivo; cited from earlier work; remark: listed apart in the source
[8] = system: form-deprivation myopia; settings: daily intravitreal injections; young chickens; cited from earlier work

2-hydroxypropyl-β-cyclodextrin
Tolerability when administered [1]: innocuous when administered

gentamicin
Penetration via the conjunctival-scleral pathway [2]: facilitated

CCCN1C[C@H](CSC)C[C@@H]2c3cccc4[nH]cc(c34)C[C@H]21 [pergolide]
Increase in solubility by addition of HPCD (factor) ([3]; pH 5): two

CCN(CC)C(=O)N[C@H]1C=C2c3cccc4[nH]cc(c34)C[C@H]2N(C)C1 [lisuride]
Increase in solubility by addition of HPCD (factor) ([3]; 20 mg/ml, 10 mM citrate buffer pH 5, 25° C., 24 hours, 20 wt % HPCD vs none): two | Effect of HPCD on stability [4]: does not affect the stabilities

NCCc1ccc(O)c(O)c1 [dopamine]
Stability with sodium acetate [5]: greatly enhanced | Stability in Tris buffer [5]: unstable

CCCC(=O)c1ccccc1 [butyrophenone]
Inhibition of axial enlargement of the eye [6]: can inhibit, and in some cases completely prevent, the axial enlargement of the eye

O=C(CCCN1CCC(O)(c2ccc(Cl)cc2)CC1)c1ccc(F)cc1 [haloperidol]
Inhibition of axial enlargement of the eye [6]: can inhibit, and in some cases completely prevent, the axial enlargement of the eye

poly(vinyl alcohol)
Increase in the iris-ciliary body to plasma drug concentration ratio [7]: 52 fold

CN1CCc2cccc3c2[C@H]1Cc1ccc(O)c(O)c1-3 [apomorphine]
Increase in solubility by addition of HPCD (factor) ([3]; pH 5): two | Inhibition of axial enlargement of the eye [6]: can inhibit, and in some cases completely prevent, the axial enlargement of the eye | Effect on form-deprivation myopia (FDM) [8]: block form-deprivation myopia | Stability with mercaptoethanol ([5]; 0.01% mercaptoethanol): stability of apomorphine is improved | Stability with sodium acetate [5]: greatly enhanced | Stability in Tris buffer [5]: unstable | Stability with antioxidants ([5]; water or plasma, ascorbic acid and sodium bisulfate): can be stabilized by the addition of antioxidants

CC(C)C[C@H]1C(=O)N2CCC[C@H]2[C@]2(O)O[C@](NC(=O)[C@@H]3C=C4c5cccc6[nH]c(Br)c(c56)C[C@H]4N(C)C3)(C(C)C)C(=O)N12 [bromocriptine]
Effect of HPCD on stability [4]: significant increases in the stabilities
